# Legend:
# [1] = molecular target: T1, Human immunodeficiency virus type 1 integrase (Human immunodeficiency virus 1, UniProt Q7ZJM1); assay: Inhibition of recombinant full length C-terminal His-tagged HIV1 integrase expressed in Escherichia coli BL21(DE3) cells assessed as inhibition of recombinant C-terminal FLAG-tagged LEDGF/p75-induced integration of viral 32-mer blunt-ended U5 DNA into pBR322 DNA preincubated with enzyme for 30 mins followed by viral and target DNA addition and subsequent addition of LEDGF/p75 after 5 mins measured after 90 mins by HTRF assay; assay type: cell-based
# T1 sequence (Q7ZJM1 whole entry): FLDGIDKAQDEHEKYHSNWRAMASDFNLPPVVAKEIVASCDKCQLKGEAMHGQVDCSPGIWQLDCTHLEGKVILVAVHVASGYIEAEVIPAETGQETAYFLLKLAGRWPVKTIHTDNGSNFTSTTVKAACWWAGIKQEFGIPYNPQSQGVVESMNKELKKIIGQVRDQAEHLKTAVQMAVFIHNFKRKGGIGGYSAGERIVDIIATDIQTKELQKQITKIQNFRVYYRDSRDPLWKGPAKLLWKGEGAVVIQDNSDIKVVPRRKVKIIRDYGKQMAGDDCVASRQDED
# [2] = molecular target: T2, Human immunodeficiency virus type 1 integrase (Human immunodeficiency virus 1, UniProt Q7ZJM1, A128T); assay: Inhibition of recombinant full length HIV1 C-terminal His-tagged integrase A128T mutant multimerization with N-terminal FLAG-tagged integrase A128T mutant expressed in Escherichia coli BL21(DE3) cells after 2.5 hrs by HTRF assay
# T2 sequence (Q7ZJM1 entry or part of it A128T): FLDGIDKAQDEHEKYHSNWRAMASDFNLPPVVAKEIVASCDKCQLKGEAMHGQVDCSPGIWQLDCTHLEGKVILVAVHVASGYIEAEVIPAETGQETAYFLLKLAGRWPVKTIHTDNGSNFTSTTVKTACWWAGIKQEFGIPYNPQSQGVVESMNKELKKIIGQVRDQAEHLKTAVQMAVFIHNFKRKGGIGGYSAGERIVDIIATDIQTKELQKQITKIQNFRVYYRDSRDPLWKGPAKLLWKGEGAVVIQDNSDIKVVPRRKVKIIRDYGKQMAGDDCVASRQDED
# [3] = molecular target: T2, Human immunodeficiency virus type 1 integrase; assay: (§1) Inhibition of recombinant full length C-terminal His-tagged HIV1 integrase A128T mutant expressed in Escherichia coli BL21(DE3) cells assessed as reduction in LEDGF/p75 independent 3' processing activity using 32P-labeled blunt ended 21-mer DNA as substrate preincubated for 30 mins followed by substrate addition measured after 1 hr by […]
# [4] = molecular target: T1, Human immunodeficiency virus type 1 integrase; assay: Inhibition of recombinant full length HIV1 C-terminal His-tagged integrase multimerization with N-terminal FLAG-tagged integrase expressed in Escherichia coli BL21(DE3) cells after 2.5 hrs by HTRF assay
# [5] = molecular target: T1, Human immunodeficiency virus type 1 integrase; assay: as §1, with “integrase” for “integrase A128T mutant”
# [6] = molecular target: T1, Human immunodeficiency virus type 1 integrase; assay: Inhibition of C-terminal FLAG-tagged LEDGF/p75 binding to recombinant full length N-terminal His-tagged HIV1 integrase expressed in Escherichia coli BL21(DE3) cells preincubated with enzyme for 30 mins followed by LEDGF/p75 addition by HTRF assay
SMILES,IC50 [1] [µM],further results
COC(C(=O)O)c1c(C)nc2ccc(Br)cc2c1-c1ccc(Cl)cc1 (stereo not drawn),1.3,
Cn1c(C(OC(C)(C)C)C(=O)O)c(-c2ccc3c(c2)CCCO3)c2ccccc21 (stereo not drawn),4.5,EC50 [2]: 16 µM; IC50 [3]: 0.9 µM; EC50 [4]: 16.1 µM; IC50 [5]: 3.2 µM; IC50 [6]: 28.7 µM
Cn1c(C(OC(C)(C)C)C(=O)O)c(Cc2ccccc2)c2ccccc21 (stereo not drawn),31.3,
Cn1c(CC(OC(C)(C)C)C(=O)O)c(-c2ccccc2)c2ccccc21 (stereo not drawn),> 100,
COc1ccc(-n2c(C(OC(C)(C)C)C(=O)O)c(C)c3ccccc32)cc1 (stereo not drawn),> 100,
COc1ccc(-c2c(C(OC(C)(C)C)C(=O)O)n(C)c3ccccc23)cc1 (stereo not drawn),32,
COc1ccc(-c2c(C(OC(C)(C)C)C(=O)O)n(Cc3ccccc3)c3ccccc23)cc1 (stereo not drawn),59.1,
Cn1c(C(OC(C)(C)C)C(=O)O)c(-c2ccccc2)c2ccccc21 (stereo not drawn),44.1,
